Data on 1 compound can be found in patent US20250170101A1, “MONOACYLGLYCEROL LIPASE INHIBITORS AND USE THEREOF FOR THE TREATMENT AND MANAGEMENT OF PAIN AND RELATED CONDITIONS” (Psy Therapeutics, Inc., priority 2021, published 2025).

In one assay the target is T1, human MAGL (Homo sapiens, UniProt Q99685).
T1 construct: recombinant MAGL enzyme (aa 2-303 RBC, internal preparation)
T1 sequence (Q99685 2-303): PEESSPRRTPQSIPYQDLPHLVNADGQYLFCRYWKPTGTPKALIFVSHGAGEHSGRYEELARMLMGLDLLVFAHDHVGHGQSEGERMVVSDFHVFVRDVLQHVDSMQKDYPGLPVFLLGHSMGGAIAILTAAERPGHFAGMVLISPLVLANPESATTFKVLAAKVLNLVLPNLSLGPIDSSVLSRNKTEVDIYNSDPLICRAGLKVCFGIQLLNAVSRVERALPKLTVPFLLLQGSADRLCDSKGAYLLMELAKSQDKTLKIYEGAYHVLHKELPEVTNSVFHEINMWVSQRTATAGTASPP
Put plainly: MAGL inhibition potency (IC50) with 4NPA substrate, Example 20, methods of Table C. It is filed as biochemical. To be noted: Method 12: Enzyme Conc 15, Reaction Biology (15 nM); read-out: MAGL Potency (Detection Method).

Another assay concerns the target T2, MAGL enzyme (Homo sapiens, UniProt Q99685).
T2 sequence (Q99685 1-303): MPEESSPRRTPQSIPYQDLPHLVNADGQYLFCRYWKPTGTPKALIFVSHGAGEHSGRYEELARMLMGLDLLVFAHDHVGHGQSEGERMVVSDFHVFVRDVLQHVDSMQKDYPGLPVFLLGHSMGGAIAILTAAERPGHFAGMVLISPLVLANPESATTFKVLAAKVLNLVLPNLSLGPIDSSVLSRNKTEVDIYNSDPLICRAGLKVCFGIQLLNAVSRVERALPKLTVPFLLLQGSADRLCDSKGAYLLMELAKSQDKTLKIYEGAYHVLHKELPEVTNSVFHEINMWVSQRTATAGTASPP
Put plainly: MAGL reversible inhibition assay (washout), Example 22. The class given is biochemical. Set-up: % MAGL activity returning after washout: concentration or dose not given beside the values.

Consider `Cc1cn(C2CC3(C2)CN(C(=O)c2cc(O)ccc2F)C3)nc1-c1cc(F)ccc1Cl` (single isomer, unassigned) [Compound 520, {6-[3-(2-chloro-5-fluorophenyl)-4-methyl-1-pyrazolyl]-2-aza-2-spiro[3.3]heptyl}(2-fluoro-5-hydroxyphenyl)methanone], for which the IC50 on human MAGL was under 50 nM. For the same compound, the “degree to which MAGL enzymatic activity returned following washout of test compounds” value at MAGL enzyme (pre-washout compound concentration 1 μM) is on record as 100. At MAGL enzyme (relative to control (no inhibitor before washout), immediately following 30 minute washout), the “% MAGL activity returning after washout” value was over 50%.
